In this test the test system is K562 cells. In words: Long-term culture of OATD-02-treated K562 cells (viable cell count, propidium iodide). The format is cell-based, human. The settings on record: different concentrations, 14 days, medium not replaced. How it is done:
CT26.WT (CRL-2638, CT26, mouse colon carcinoma) and K562 (CCL-243, human CML) cell lines were purchased from the ATCC®. Adherent CT26 and non-adherent K562 cells were maintained in the RPMI-1640 medium (Gibco, Life Technologies, Carlsbad, CA, USA) supplemented with 10% foetal bovine serum (FBS, #10270106, ThermoFisher/Gibco™) and 100 U/mL penicillin G and 100 µg/mL streptomycin (Antibiotic-Antimycotic, #15240062, Gibco®) at 37 °C in a humidified 5% CO2 atmosphere. Full-grown monolayers of CT26 cells were trypsinized for 15 min (0.25% Gibco® Trypsin-EDTA), harvested, and passaged several times for expansion. Both cell lines were confirmed at the last used passage to be mycoplasma-free (Mycoalert Detection Kit, Lonza, Basel, Switzerland). The Renca (murine renal adenocarcinoma) cell line was maintained for the in vivo study conducted at Crown Biosciences (Beijing, China). A monolayer culture was grown in DMEM medium supplemented with 10% FBS at 37 °C and 5% CO2. The cells were harvested in exponential growth phase and used for inoculation. […] To assess the antiproliferative effects of OATD-02, the culture medium has not been replaced during this period and the cell density/viability (propidium iodide staining) was determined daily. […]

Structures are written as SMILES.

Turning to `CN(C)C[C@@H]1CC[C@@H](CCB(O)O)C[C@]1(N)C(=O)O` [OATD-02], the “survival of K562 cells in long-term culture” value was “dying faster in a dose-dependent manner”.

(Values after PMC9406419, “OATD-02 Validates the Benefits of Pharmacological Inhibition of Arginase 1 and 2 in Cancer” (Cancers, 2022).)
